Laboratory results reported in patent US10745356B2, “Compositions and methods for treating tuberculosis” (priority 2015, dated 2020).
In brackets after ≈: the same amount, converted by molar mass. Where two headings read alike, the source gives them in different places.

System: M. tuberculosis strains
Assay: Minimum Inhibitory Concentration (MIC) against M. tuberculosis strains, resazurin microtiter plate assay
Type: cell-based, Mycobacterium tuberculosis
[1] = Mycobacterium tuberculosis, Table 2, C4 SAR, Middlebrook 7H9, 37° C. six days, resazurin fluorescence after 48 hours, read-out: MIC90
[2] = Mycobacterium tuberculosis, Table 5, Middlebrook 7H9, 37° C. six days, resazurin fluorescence after 48 hours, read-out: MIC90
[3] = Mycobacterium tuberculosis, Table 6, Middlebrook 7H9, 37° C. six days, resazurin fluorescence after 48 hours, read-out: MIC90
[4] = Mycobacterium tuberculosis, Table 1, C2 SAR with chlorophenyl, Middlebrook 7H9, 37° C. six days, resazurin fluorescence after 48 hours, read-out: MIC90
[5] = Mycobacterium tuberculosis, Table 4A, C6 SAR with amide, Middlebrook 7H9, 37° C. six days, resazurin fluorescence after 48 hours, read-out: MIC90
[6] = Mycobacterium tuberculosis, Table 4, C6 SAR, Middlebrook 7H9, 37° C. six days, resazurin fluorescence after 48 hours, read-out: MIC90

SMILES: Cc1cc2nccc(-c3ccccc3C#N)c2c(C)c1-c1ccc(CN2CCOCC2)cc1 [Compound 52]
- MIC90 [1]: 2.5 µM (≈ 1.08 µg/mL)

SMILES: Cc1cc2nc(C(=O)NCCO)cc(-c3ccccc3)c2c(C)c1-c1ccncc1 [Compound 96]
- MIC90 [2]: 0.3 µM (≈ 0.119 µg/mL)

SMILES: Cc1cc2nc(C(=O)N[C@H]3CCC[C@@H]3O)cc(-c3ccccc3F)c2c(C)c1-c1ccncc1 [Compound 97]
- MIC90 [2]: < 0.16 µM

SMILES: COc1cccc(-c2ccnc3cc(C)c(-c4ccc(CN5CCOCC5)cc4)c(C)c23)c1OC [Compound 51]
- MIC90 (Mycobacterium tuberculosis): > 40 µM

SMILES: Cc1cc2nccc(-c3ccnn3C)c2c(C)c1-c1ccc(CN2CCOCC2)cc1 [Compound 63]
- MIC90 (Mycobacterium tuberculosis): 2.2 µM (≈ 0.908 µg/mL)

SMILES: CNC(=O)c1cc(C2=CCOCC2)c2c(C)c(-c3ccncc3)c(C)cc2n1 [Compound 99]
- MIC90 [2]: 12.5 µM (≈ 4.67 µg/mL)

SMILES: Cc1cc(-c2ccnc3cc(C)c(-c4ccc(CN5CCOCC5)cc4)c(C)c23)n(C)n1 [Compound 61]
- MIC90 [1]: > 40 µM

SMILES: Cc1cc2nc(C(=O)N[C@@H]3CN(C)C[C@@H]3F)cc(-c3ccnn3C)c2c(C)c1-c1ccncc1 [Compound 106]
- MIC90 [3]: 1.6 µM (≈ 0.734 µg/mL)

SMILES: CNc1cc(-c2ccccc2Cl)c2c(C)c(-c3ccncc3)c(C)cc2n1 [Compound 8]
- MIC90 [4]: 6 µM (≈ 2.24 µg/mL)

SMILES: Cc1cc2nccc(-c3ccccc3)c2c(C)c1-c1ccnn1C [Compound 76]
- MIC90 (Mycobacterium tuberculosis): 47 µM (≈ 14.7 µg/mL)

SMILES: CNC(=O)c1cc(N2CCCCC2)c2c(C)c(-c3ccncc3)c(C)cc2n1 [Compound 69]
- MIC90 (Mycobacterium tuberculosis): 5 µM (≈ 1.87 µg/mL)

SMILES: CNC(=O)c1cc(-c2ccccc2)c2c(C)c(-c3ccncc3)c(C)cc2n1 [Compound 95]
- MIC90 [2]: 0.3 µM (≈ 0.11 µg/mL)

SMILES: CNC(=O)c1cc(-c2ccccc2F)c2c(C)c(C3=CCN(S(=O)(=O)N4CCOCC4)CC3)c(C)cc2n1 [Compound 88]
- MIC90 [5]: 10 µM (≈ 5.39 µg/mL)

SMILES: Cc1cc2nc(C(=O)NO)cc(-c3ccccc3Cl)c2c(C)c1-c1ccncc1 [Compound 17]
- MIC90 [4]: 10 µM (≈ 4.04 µg/mL)

SMILES: Cc1cc2nc(C(=O)N[C@H]3CCC[C@@H]3O)cc(-c3ccccc3Cl)c2c(C)c1-c1ccncc1 [Compound 24]
- MIC90 [4]: 0.6 µM (≈ 0.283 µg/mL)

SMILES: Cc1cc2nccc(-c3ccccc3)c2c(C)c1-c1ccncc1 [Compound 72]
- MIC90 [6]: 5 µM (≈ 1.55 µg/mL)

SMILES: CNC(=O)c1cc(-c2cncnc2)c2c(C)c(-c3ccncc3)c(C)cc2n1 [Compound 68]
- MIC90 (Mycobacterium tuberculosis, Table 3, C4 SAR, Middlebrook 7H9, 37° C. six days, resazurin fluorescence after 48 hours, read-out: MIC90): 10 µM (≈ 3.69 µg/mL)

SMILES: CNC(=O)c1cc(-c2ccccc2F)c2c(C)c(-c3ccnc(C(F)(F)F)c3)c(C)cc2n1 [Compound 79]
- MIC90 [5]: 5 µM (≈ 2.27 µg/mL)

SMILES: Cc1cc2nccc(-c3ccccc3Cl)c2c(C)c1-c1ccncc1 [Compound 1]
- MIC90 [4]: 5 µM (≈ 1.72 µg/mL)

SMILES: Cc1cc2nccc(-c3ccc(Cl)cc3)c2c(C)c1-c1ccc(CN2CCOCC2)cc1 [Compound 50]
- MIC90 (Mycobacterium tuberculosis): 80 µM (≈ 35.4 µg/mL)

SMILES: Cc1cc2nccc(-c3cncnc3C)c2c(C)c1-c1ccc(CN2CCOCC2)cc1 [Compound 65]
- MIC90 [1]: 5 µM (≈ 2.12 µg/mL)

SMILES: Cc1cc2nc(C(=O)N[C@@H](C)CO)cc(-c3ccccc3F)c2c(C)c1-c1ccncc1 [Compound 40]
- MIC90 (Mycobacterium tuberculosis, Table 1A, C2 SAR with fluorophenyl, Middlebrook 7H9, 37° C. six days, resazurin fluorescence after 48 hours, read-out: MIC90): 0.3 µM (≈ 0.129 µg/mL)

SMILES: Cc1cc2nc(C(=O)NC(C)CCO)cc(-c3ccccc3Cl)c2c(C)c1-c1ccncc1 (stereo not shown) [Compound 26]
- MIC90 [4]: 1.25 µM (≈ 0.575 µg/mL)

SMILES: Cc1cc2nccc(-c3ccccc3)c2c(C)c1-c1cnco1 [Compound 74]
- MIC90 [6]: 31 µM (≈ 9.31 µg/mL)

SMILES: CNC(=O)c1cc(-c2ccccc2F)c2c(C)c(C3=CCC(C(=O)O)CC3)c(C)cc2n1 (stereo not shown) [Compound 87]
- MIC90 [5]: 2.5 µM (≈ 1.08 µg/mL)

SMILES: CCN(CC)Cc1ccccc1-c1ccnc2cc(C)c(-c3ccc(CN4CCOCC4)cc3)c(C)c12 [Compound 54]
- MIC90 [1]: 2.5 µM (≈ 1.23 µg/mL)

SMILES: Cc1cc2nccc(-c3ccccc3)c2c(C)c1-c1ccc(CN2CCOCC2)cc1 [Compound 47]
- MIC90 (Mycobacterium tuberculosis): 0.45 µM (≈ 0.184 µg/mL)
- MIC90 (Table 4, C6 SAR, Middlebrook 7H9, 37° C. six days, resazurin fluorescence after 48 hours, read-out: MIC90): 0.45 µM (≈ 0.184 µg/mL)

SMILES: Cc1cc2nc(N)cc(-c3ccccc3Cl)c2c(C)c1-c1ccncc1 [Compound 7]
- MIC90 [4]: 10 µM (≈ 3.6 µg/mL)

SMILES: Cc1cc2nc(C(=O)N3CCCC3)cc(-c3ccccc3Cl)c2c(C)c1-c1ccncc1 [Compound 19]
- MIC90 [4]: 2.5 µM (≈ 1.1 µg/mL)

SMILES: Cc1cccc(C)c1-c1ccnc2cc(C)c(-c3ccc(CN4CCOCC4)cc3)c(C)c12 [Compound 58]
- MIC90 (Mycobacterium tuberculosis): 5 µM (≈ 2.18 µg/mL)

SMILES: Cc1cc2nc(CO)cc(-c3ccccc3Cl)c2c(C)c1-c1ccncc1 [Compound 3]
- MIC90 [4]: 3.75 µM (≈ 1.41 µg/mL)

SMILES: Cc1cc2nc(C(=O)N[C@@H]3CCC[C@H]3O)cc(-c3ccccc3F)c2c(C)c1-c1ccncc1 [Compound 98]
- MIC90 [2]: 0.6 µM (≈ 0.273 µg/mL)

SMILES: Cc1cc2nc(C(=O)N3CCOCC3)cc(-c3ccccc3Cl)c2c(C)c1-c1ccncc1 [Compound 32]
- MIC90 [4]: 15 µM (≈ 6.87 µg/mL)

SMILES: CNC(=O)c1cc(-c2ccccc2F)c2c(C)c(-c3ccoc3)c(C)cc2n1 [Compound 80]
- MIC90 (Mycobacterium tuberculosis): 0.6 µM (≈ 0.225 µg/mL)

SMILES: Cc1cc2nc(C(=O)NCCO)cc(-c3ccnn3C)c2c(C)c1-c1ccncc1 [Compound 107]
- MIC90 [3]: 1.6 µM (≈ 0.642 µg/mL)

SMILES: Cc1cc2nccc(-c3cccnc3C#N)c2c(C)c1-c1ccc(CN2CCOCC2)cc1 [Compound 62]
- MIC90 (Mycobacterium tuberculosis): 7.5 µM (≈ 3.26 µg/mL)
